Measured values: patent US5620958A, “Bradykinin antagonists” (Coretech, Inc., priority 1994, dated 1997)
Peptide text beside a SMILES is read from it.

Tests used:
BK2 receptor [1] = molecular target: T1, BK2 receptor (Oryctolagus cuniculus, UniProt Q28642); experiment: rabbit jugular vein (RJV) in vitro, antagonism of BK; type: cell-based; conditions: Table A; recovery after washing
T1 construct: when administered to an intact animal; from tissue; host or cells: whole rabbit (systemic arterial blood pressure), LPS-pretreated
T1 sequence (Q28642 1-367): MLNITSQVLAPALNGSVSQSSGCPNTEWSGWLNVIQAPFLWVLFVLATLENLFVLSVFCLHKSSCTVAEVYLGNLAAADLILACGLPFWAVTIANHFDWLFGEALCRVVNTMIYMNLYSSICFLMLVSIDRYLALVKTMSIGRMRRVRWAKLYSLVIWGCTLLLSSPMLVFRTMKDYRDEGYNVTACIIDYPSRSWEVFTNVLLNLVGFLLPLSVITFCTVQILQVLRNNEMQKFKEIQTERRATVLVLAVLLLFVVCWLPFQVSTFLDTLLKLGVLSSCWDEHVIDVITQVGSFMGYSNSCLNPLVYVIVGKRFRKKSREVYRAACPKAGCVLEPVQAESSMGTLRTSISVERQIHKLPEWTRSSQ

[2] = system: BK-induced vascular permeability; experiment: rabbit skin vascular permeability to intradermal BK (Evans Blue); type: in vivo
BK-induced hypotension = BK-induced hypotension in the anesthetized rat; type: in vivo; conditions: intravenous infusion 9 nmol kg^-1 min^-1; BK 4×10^-9 moles; FIG. 3
Procedure: After stopping the infusion of CP-0127, it can be seen that the responses to BK returned slowly being fully recovered after approximately 20 minutes.
Using anaesthetized rats, dose-response curves to BK were constructed and the ED50 identified (see FIG. 5a). The ED50 was then injected before and at 15 minute intervals after a single S.C. injection of CP-0127.

BK2 receptor [3] = molecular target: T1, BK2 receptor; experiment: blood pressure response to BK2 agonist in LPS-pretreated rabbits; type: in vivo, rabbit; parameters: key to OBSERVED ANTAGONIST ACTIVITY BK2: +: indicates complete blockade of the blood pressure response to the appropriate agonist; +/-: indicates partial blockade; -: indicates no observable effect at the dose indicated; conditions: rabbits given LPS (10 μg) 20 hours before
BK1 receptor = molecular target: T2, BK1 receptor (Oryctolagus cuniculus, UniProt P48748); experiment: rabbit aorta in vitro, reversal of des-Arg^9 -BK contraction; type: cell-based; conditions: Table G; negative log of molar concentration causing 50% reversal of 10^-7 M des-Arg^9 -BK contraction
T2 construct: when administered to an intact animal; from tissue; host or cells: whole rabbit (systemic arterial blood pressure), LPS-pretreated
T2 sequence (P48748 1-352): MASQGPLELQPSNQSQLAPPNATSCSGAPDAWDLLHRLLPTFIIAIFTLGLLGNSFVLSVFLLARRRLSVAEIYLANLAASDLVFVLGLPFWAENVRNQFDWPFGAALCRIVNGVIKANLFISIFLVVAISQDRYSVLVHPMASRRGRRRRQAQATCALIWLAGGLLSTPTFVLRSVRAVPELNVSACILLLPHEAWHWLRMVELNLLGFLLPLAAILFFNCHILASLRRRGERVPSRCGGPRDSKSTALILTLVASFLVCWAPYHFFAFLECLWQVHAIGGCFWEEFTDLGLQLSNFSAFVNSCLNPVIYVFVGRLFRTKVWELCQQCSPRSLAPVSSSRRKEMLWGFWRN

NK2 receptor = molecular target: T3, NK2 receptor (Oryctolagus cuniculus, UniProt P79218); experiment: rabbit pulmonary artery, reduction of neurokinin A contraction; type: cell-based; conditions: Table R; negative log of molar concentration reducing sustained neurokinin A contraction by 50%; read-out: NK2 Rabbit Pulm Art log (converted)
T3 construct: reduce a sustained contractile response produced by neurokinin A by 50%; from tissue; host or cells: contractile tissue preparation (rabbit pulmonary artery per the earlier reading)
T3 sequence (P79218 1-384): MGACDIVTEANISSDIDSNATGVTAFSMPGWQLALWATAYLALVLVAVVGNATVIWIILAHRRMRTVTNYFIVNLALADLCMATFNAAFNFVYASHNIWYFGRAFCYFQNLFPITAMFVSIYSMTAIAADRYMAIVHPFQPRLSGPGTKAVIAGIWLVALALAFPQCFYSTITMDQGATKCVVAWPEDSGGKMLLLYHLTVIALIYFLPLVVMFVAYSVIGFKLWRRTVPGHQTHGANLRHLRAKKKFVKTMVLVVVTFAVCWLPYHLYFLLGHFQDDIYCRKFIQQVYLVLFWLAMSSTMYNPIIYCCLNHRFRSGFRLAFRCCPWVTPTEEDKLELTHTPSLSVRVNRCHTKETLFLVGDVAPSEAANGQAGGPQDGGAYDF
Procedure: The heterodimers thus obtained were tested for activity as heretofore described, the results being shown in Table R. In this Table -log [M] represents the negative log of the molar concentration of the antagonist necessary to reduce a sustained contractile response produced by neurokinin A by 50%.

BK2 receptor [4] = molecular target: T4, BK2 receptor (Rattus norvegicus, UniProt P25023); experiment: cell-based
T4 sequence (P25023 1-396): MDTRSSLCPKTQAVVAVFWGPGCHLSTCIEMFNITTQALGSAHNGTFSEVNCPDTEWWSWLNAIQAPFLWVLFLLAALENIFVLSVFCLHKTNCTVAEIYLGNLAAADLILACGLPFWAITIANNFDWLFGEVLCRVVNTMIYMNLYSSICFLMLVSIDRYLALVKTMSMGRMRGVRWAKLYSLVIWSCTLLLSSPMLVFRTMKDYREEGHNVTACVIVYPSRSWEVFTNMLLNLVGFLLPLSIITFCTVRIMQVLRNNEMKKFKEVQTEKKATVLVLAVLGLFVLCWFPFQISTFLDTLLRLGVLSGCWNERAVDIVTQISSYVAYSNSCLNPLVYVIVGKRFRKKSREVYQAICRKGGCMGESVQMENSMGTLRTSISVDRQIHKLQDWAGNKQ

Structure (SMILES)	RJV % REC (BK2 receptor [1])	inhibition of BK-induced skin vascular permeability ([2]; co-injected intradermally with BK, FIG. 2A)	inhibition of BK-induced skin vascular permeability ([2]; pre-injected 15 or 30 minutes before BK in the same site, FIGS. 2B, 2C)	inhibition of hypotensive response to BK (BK-induced hypotension)	OBSERVED ANTAGONIST ACTIVITY BK2 (BK2 receptor [3]; 1 μg kg^-1 min^-1)	OBSERVED ANTAGONIST ACTIVITY BK2 (BK2 receptor [3]; 3 μg kg^-1 min^-1)	OBSERVED ANTAGONIST ACTIVITY BK2 (BK2 receptor [3]; 10 μg kg^-1 min^-1)	BK1 RABBIT AORTA IC50 (BK1 receptor)	IC50 (NK2 receptor)	Kb (BK2 receptor [4])
CC(C)C[C@H](NC(=O)[C@@H](Cc1ccccc1)NC(=O)[C@H](CS)NC(=O)[C@H](Cc1ccccc1)NC(=O)CNC(=O)[C@@H]1C[C@@H](O)CN1C(=O)[C@@H]1CCCN1C(=O)[C@H](CCCNC(=N)N)NC(=O)[C@H](N)CCCNC(=N)N)C(=O)N[C@@H](CCCNC(=N)N)C(=O)O [CP-0126] (HELM PEPTIDE1{[dR].R.P.[Hyp].G.F.C.[dF].L.R}$$$$V2.0)	60%	more potent than CP-0127	significantly less effective	almost totally ineffective	+	+	+	Inactive		
CC(C)C[C@H](NC(=O)[C@@H](Cc1ccccc1)NC(=O)[C@H](CSC1CC(=O)N(CCCCCCN2C(=O)CC(SC[C@H](NC(=O)[C@@H](Cc3c[nH]c4ccccc34)NC(=O)[C@@H](NC(=O)[C@@H](Cc3c[nH]c4ccccc34)NC(=O)[C@H](Cc3ccc(O)cc3)NC(=O)[C@@H](N)CC(=O)O)C(C)C)C(=O)N[C@@H](CCCNC(=N)N)C(N)=O)C2=O)C1=O)NC(=O)[C@H](Cc1ccccc1)NC(=O)CNC(=O)[C@@H]1C[C@@H](O)CN1C(=O)[C@@H]1CCCN1C(=O)[C@H](CCCNC(=N)N)NC(=O)[C@H](N)CCCNC(=N)N)C(=O)N[C@@H](CCCNC(=N)N)C(=O)O (stereo partly shown) [CP-0416] (HELM PEPTIDE1{[dR].R.P.[Hyp].G.F.C.[dF].L.R}|PEPTIDE2{D.Y.[dW].V.[dW].C.R.[am]}|CHEM1{[O=C1CC([*:1])C(=O)N1CCCCCCN1C(=O)CC([*:2])C1=O]}$PEPTIDE1,CHEM1,7:R3-1:R1|PEPTIDE2,CHEM1,6:R3-1:R2$$$V2.0; N-terminus assumed)									2.51 µM	0.002 µM
